Legend:
[1] = biological target: T1, FLT3-ITD (Homo sapiens, UniProt P36888); test: FLT3-ITD recombinant enzyme kinase assay (AlphaScreen); type: biochemical; settings: 8 pt; read-out: FLT3_ITD 8 pt: IC50
T1 sequence (P36888 1-993): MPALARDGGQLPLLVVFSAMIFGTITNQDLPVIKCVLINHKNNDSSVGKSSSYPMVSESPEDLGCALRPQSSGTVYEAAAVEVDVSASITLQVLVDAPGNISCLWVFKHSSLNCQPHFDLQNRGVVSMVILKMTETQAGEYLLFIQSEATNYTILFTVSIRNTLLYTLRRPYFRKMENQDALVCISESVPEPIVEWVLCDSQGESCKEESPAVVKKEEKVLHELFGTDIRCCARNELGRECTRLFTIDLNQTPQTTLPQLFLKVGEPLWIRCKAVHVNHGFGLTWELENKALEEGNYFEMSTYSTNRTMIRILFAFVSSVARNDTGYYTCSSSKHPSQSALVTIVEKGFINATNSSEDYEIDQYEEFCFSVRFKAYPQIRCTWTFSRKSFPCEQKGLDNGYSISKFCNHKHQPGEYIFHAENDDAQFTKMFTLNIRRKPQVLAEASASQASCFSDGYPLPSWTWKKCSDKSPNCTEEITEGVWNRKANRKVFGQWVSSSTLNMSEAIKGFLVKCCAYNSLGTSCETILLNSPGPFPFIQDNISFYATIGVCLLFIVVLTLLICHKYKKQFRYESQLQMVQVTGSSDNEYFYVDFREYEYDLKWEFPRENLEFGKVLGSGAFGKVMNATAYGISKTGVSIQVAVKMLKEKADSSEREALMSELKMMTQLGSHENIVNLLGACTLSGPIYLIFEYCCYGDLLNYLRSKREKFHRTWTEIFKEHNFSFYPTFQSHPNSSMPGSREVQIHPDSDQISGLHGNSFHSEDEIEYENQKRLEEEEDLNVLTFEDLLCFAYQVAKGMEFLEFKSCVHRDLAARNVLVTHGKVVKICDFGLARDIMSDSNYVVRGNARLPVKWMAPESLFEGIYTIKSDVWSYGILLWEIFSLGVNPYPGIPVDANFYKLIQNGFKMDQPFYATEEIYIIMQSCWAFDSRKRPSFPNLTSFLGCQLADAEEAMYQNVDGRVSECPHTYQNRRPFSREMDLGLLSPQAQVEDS
Outline: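 Enzyme plus biotinylated poly(Glu4-Tyr) substrate (30 nM) mixed with compound, then ATP added. Donor beads went in for 20 min at room temperature, then PY20 acceptor beads for 60 min. AlphaScreen read; ATP was 10 μM for FLT3-ITD/D835Y and 100 μM for c-KIT.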

[2] = tested on: MOLM-14 D835Y (endogenous FLT3 ITD and transfected FLT3 D835Y); test: MOLM-14 D835Y cell proliferation assay (CellTiter-Glo); type: cell-based; settings: Homo sapiens, MOLM-14, 72 h; 3 d growth, GMean
Outline: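 MOLM-14 derivatives carrying D835Y or F691L, selected under escalating AC220, were seeded at 1×10^4 cells/well and exposed to an 8-point 1:3 compound series (1 to 0.00046 μM, 0.2% DMSO final) for three days at 37° C., 5% CO2. CellTiter-Glo luminescence (ATP content) versus concentration gave IC50.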

Row | Structure (SMILES) | IC50 [1] | IC50 [2]
1 | Cc1cc(-c2cnc3[nH]c(-c4ccccc4)cc3c2)ccc1CC(=O)Nc1cccc(C(F)(F)F)c1 [Compound P-0001, 2-[2-methyl-4-(2-phenyl-1H-pyrrolo[2,3-b]pyridin-5-yl)phenyl]-N-[3-(trifluoromethyl)phenyl]acetamide] | 0.0001 to 10 µM | 0.0001 to 10 µM
2 | Cc1ncc(NC(=O)Cc2ccc(-c3cnc(Nc4cnn(C)c4)nc3)cc2)cc1C(F)(F)F [Compound P-0140, 2-[4-[2-[(1-methylpyrazol-4-yl)amino]pyrimidin-5-yl]phenyl]-N-[6-methyl-5-(trifluoromethyl)-3-pyridyl]acetamide] | 0.0001 to 10 µM | 0.0001 to 10 µM
3 | Cn1cc(Nc2ncc(-c3ccc(CC(=O)Nc4ccc(C(F)(F)F)c(F)c4)cc3)cn2)cn1 [Compound P-0142, N-[3-fluoro-4-(trifluoromethyl)phenyl]-2-[4-[2-[(1-methylpyrazol-4-yl)amino]pyrimidin-5-yl]phenyl]acetamide] | 0.0001 to 10 µM | 0.0001 to 10 µM
4 | O=C(Cc1ccc(-c2cnc3[nH]c(-c4ccccc4)cc3c2)cn1)Nc1ccnc(C(F)(F)F)c1 [Compound P-0005, 2-[5-(2-phenyl-1H-pyrrolo[2,3-b]pyridin-5-yl)-2-pyridyl]-N-[2-(trifluoromethyl)-4-pyridyl]acetamide] | 0.0001 to 10 µM | 0.0001 to 10 µM
5 | Cn1cc(Nc2ncc(-c3ccc(CC(=O)Nc4cnnc(Cl)c4)cc3)cn2)cn1 [Compound P-0151, N-(6-chloropyridazin-4-yl)-2-[4-[2-[(1-methylpyrazol-4-yl)amino]pyrimidin-5-yl]phenyl]acetamide] | 0.0001 to 10 µM | 0.0001 to 10 µM
6 | Cn1cc(Nc2ncc(-c3ccc(CC(=O)Nc4ccc(C(F)(F)F)nc4)cc3)cn2)cn1 [Compound P-0095, 2-[4-[2-[(1-methylpyrazol-4-yl)amino]pyrimidin-5-yl]phenyl]-N-[6-(trifluoromethyl)-3-pyridyl]acetamide] | 0.0001 to 10 µM | 0.0001 to 10 µM
7 | Cn1cc(Nc2ncc(-c3ccc(CC(=O)Nc4cccnc4)cc3)cn2)cn1 [Compound P-0131, 2-[4-[2-[(1-methylpyrazol-4-yl)amino]pyrimidin-5-yl]phenyl]-N-(3-pyridyl)acetamide] | 0.0001 to 10 µM | 0.0001 to 10 µM
8 | Cn1cc(Nc2ncc(-c3ccc(CC(=O)Nc4cccc(C(F)(F)F)n4)cc3)cn2)cn1 [Compound P-0152, 2-[4-[2-[(1-methylpyrazol-4-yl)amino]pyrimidin-5-yl]phenyl]-N-[6-(trifluoromethyl)-2-pyridyl]acetamide] | 0.0001 to 10 µM | 0.0001 to 10 µM
9 | COc1ncc(NC(=O)Cc2ccc(-c3cnc(Nc4cnn(C)c4)nc3)cc2)cc1C(F)(F)F [Compound P-0138, N-[6-methoxy-5-(trifluoromethyl)-3-pyridyl]-2-[4-[2-[(1-methylpyrazol-4-yl)amino]pyrimidin-5-yl]phenyl]acetamide] | 0.0001 to 10 µM | 0.0001 to 10 µM
10 | Cn1cc(Nc2ncc(-c3ccc(CC(=O)Nc4cncc(C(F)(F)F)c4)cc3)cn2)cn1 [Compound P-0136, 2-[4-[2-[(1-methylpyrazol-4-yl)amino]pyrimidin-5-yl]phenyl]-N-[5-(trifluoromethyl)-3-pyridyl]acetamide] | 0.0001 to 10 µM | 0.0001 to 10 µM
11 | Cc1ncc(NC(=O)Cc2ccc(-c3cnc(Nc4cn(C)cn4)nc3)cc2F)cc1C(F)(F)F [Compound P-0099, 2-[2-fluoro-4-[2-[(1-methylimidazol-4-yl)amino]pyrimidin-5-yl]phenyl]-N-[6-methyl-5-(trifluoromethyl)-3-pyridyl]acetamide] | 0.0001 to 10 µM | 0.0001 to 10 µM

The next lines start with the values.

Row | IC50 [1] | IC50 [2] | Structure (SMILES)
12 | 0.0001 to 10 µM | 0.0001 to 10 µM | O=C(Cc1ccc(-c2cnc3[nH]c(-c4ccc(N5CCOCC5)nc4)cc3c2)cn1)Nc1ccnc(C(F)(F)F)c1 [Compound P-0183, 2-[5-[2-(6-morpholino-3-pyridyl)-1H-pyrrolo[2,3-b]pyridin-5-yl]-2-pyridyl]-N-[2-(trifluoromethyl)-4-pyridyl]acetamide]
13 | 0.0001 to 10 µM | 0.0001 to 10 µM | Cn1cnc(Nc2ncc(-c3ccc(CC(=O)Nc4cnc(F)c(C(C)(F)F)c4)cc3)cn2)c1 [Compound P-0168, N-[5-(1,1-difluoroethyl)-6-fluoro-3-pyridyl]-2-[4-[2-[(1-methylimidazol-4-yl)amino]pyrimidin-5-yl]phenyl]acetamide]
14 | 0.0001 to 10 µM | 0.0001 to 10 µM | O=C(Cc1ccc(-c2cnc3[nH]c(-c4cnn(C(F)F)c4)cc3c2)c(F)c1)Nc1cncc(C(F)(F)F)c1 [Compound P-0197, 2-[4-[2-[1-(difluoromethyl)pyrazol-4-yl]-1H-pyrrolo[2,3-b]pyridin-5-yl]-3-fluoro-phenyl]-N-[5-(trifluoromethyl)-3-pyridyl]acetamide]
15 | 0.0001 to 10 µM | 0.0001 to 10 µM | COc1ccc(-c2cc3cc(-c4ccc(CC(=O)Nc5cncc(C(F)(F)F)c5)cc4F)cnc3[nH]2)cn1 [Compound P-0196, 2-[3-fluoro-4-[2-(6-methoxy-3-pyridyl)-1H-pyrrolo[2,3-b]pyridin-5-yl]phenyl]-N-[5-(trifluoromethyl)-3-pyridyl]acetamide]
16 | 0.0001 to 10 µM | 0.0001 to 10 µM | Cn1cnc(Nc2ncc(-c3ccc(CC(=O)Nc4cncc(C(F)(F)F)c4)cc3)cn2)c1 [Compound P-0167]
17 | 0.0001 to 10 µM | 0.0001 to 10 µM | COc1ccccc1CNC(=O)Cc1ccc(-c2cnc(Nc3cnn(C)c3)nc2)cc1 [Compound P-0160, N-[(2-methoxyphenyl)methyl]-2-[4-[2-[(1-methylpyrazol-4-yl)amino]pyrimidin-5-yl]phenyl]acetamide]
18 | 0.0001 to 10 µM | 0.0001 to 10 µM | Cn1cc(Nc2ncc(-c3ccc(CC(=O)Nc4cccc(S(C)(=O)=O)c4)cc3)cn2)cn1 [Compound P-0155, 2-[4-[2-[(1-methylpyrazol-4-yl)amino]pyrimidin-5-yl]phenyl]-N-(3-methylsulfonylphenyl)acetamide]
19 | 0.0001 to 10 µM | 0.0001 to 10 µM | Cn1cc(Nc2ncc(-c3ccc(CC(=O)NCc4cncc(C(F)(F)F)c4)cc3)cn2)cn1 [Compound P-0161, 2-[4-[2-[(1-methylpyrazol-4-yl)amino]pyrimidin-5-yl]phenyl]-N-[[5-(trifluoromethyl)-3-pyridyl]methyl]acetamide]
20 | 0.0001 to 10 µM | 0.0001 to 10 µM | Cn1cc(Nc2ncc(-c3ccc(CC(=O)Nc4ccnc(S(C)(=O)=O)c4)cc3)cn2)cn1 [Compound P-0154, 2-[4-[2-[(1-methylpyrazol-4-yl)amino]pyrimidin-5-yl]phenyl]-N-(2-methylsulfonyl-4-pyridyl)acetamide]
21 | 0.0001 to 10 µM | 0.0001 to 10 µM | Cn1cnc(Nc2ncc(-c3ccc(CC(=O)Nc4cnc(F)c(C(C)(F)F)c4)cc3F)cn2)c1 [Compound P-0170, N-[5-(1,1-difluoroethyl)-6-fluoro-3-pyridyl]-2-[3-fluoro-4-[2-[(1-methylimidazol-4-yl)amino]pyrimidin-5-yl]phenyl]acetamide]
22 | 0.0001 to 10 µM | 0.0001 to 10 µM | COc1ncc(NC(=O)Cc2ccc(-c3cnc4[nH]nc(C)c4c3)c(F)c2)cc1C(F)(F)F [Compound P-0174, 2-[3-fluoro-4-(3-methyl-1H-pyrazolo[3,4-b]pyridin-5-yl)phenyl]-N-[6-methoxy-5-(trifluoromethyl)-3-pyridyl]acetamide]
23 | 0.0001 to 10 µM | 0.0001 to 10 µM | COCCn1cc(Nc2ncc(-c3ccc(CC(=O)Nc4cncc(C(F)(F)F)c4)cc3)cn2)cn1 [Compound P-0178, 2-[4-[2-[[1-(2-methoxyethyl)pyrazol-4-yl]amino]pyrimidin-5-yl]phenyl]-N-[5-(trifluoromethyl)-3-pyridyl]acetamide]
